In experiment [1] the target is T1, COX-1 (Homo sapiens, UniProt P23219).
T1 construct: host or cells: U-937 human lymphoma cells
Nature of the experiment: Assay for the COX-1 inhibitory activity using U-937. Format: cell-based. As to conditions: 1 μM test compound; PGE2 inhibition in U-937 human lymphoma cells vs DMSO control; read-out: Cyclooxygenase (COX) Inhibition (%) COX-1 (1 μM). The procedure: The collected cells were diluted with HBSS (x1, Hank's balanced salt solution) to a concentration of 1×10^6 cells/ml. 1 ml of the dilute cell solution was placed into each well of 12-well plates. 5 μl of 1 μM solution of a test compound in DMSO and 5 μl of DMSO as a control were added to the wells. The wells were incubated in CO2 incubator at 37° C. for 15 minutes. Separately, 10 mM stock solution of arachidonic acid in ethanol was diluted ten times in ethanol to prepare 1 mM solution of arachidonic acid. Arachidonic acid acts as a substrate. 10 μl of the 1 mM solution of arachidonic acid was added to each well and incubated at CO2 incubator at 37° C. for 30 minutes. The cell solution of each well was placed in a centrifuge test tube and centrifuged at 10,000 rpm at 4° C. for 5 minutes. The concentration of PGE2 in the collected cells and the supernatant was quantified by means of a monoclonal kit (Cayman Chemicals). The percentages of PGE2 inhibition in a group of the test compound-treated cells in relation to a group of the DMSO-treated cells were calculated. Based on the calculated values, the COX-1 inhibitory activities were evaluated.
(§1) % Inhibition=(concentration of PGE2 in test compound-untreated sample−concentration of PGE2 in test compound-treated sample)/(concentration of PGE2 in test compound-untreated sample)×100

Experiment [2] concerns the target T2, COX-2 (Mus musculus, UniProt Q05769).
T2 construct: host or cells: RAW 264.7 cells, aspirin-pretreated, induced with interferon γ and LPS
T2 sequence (Q05769 18-604): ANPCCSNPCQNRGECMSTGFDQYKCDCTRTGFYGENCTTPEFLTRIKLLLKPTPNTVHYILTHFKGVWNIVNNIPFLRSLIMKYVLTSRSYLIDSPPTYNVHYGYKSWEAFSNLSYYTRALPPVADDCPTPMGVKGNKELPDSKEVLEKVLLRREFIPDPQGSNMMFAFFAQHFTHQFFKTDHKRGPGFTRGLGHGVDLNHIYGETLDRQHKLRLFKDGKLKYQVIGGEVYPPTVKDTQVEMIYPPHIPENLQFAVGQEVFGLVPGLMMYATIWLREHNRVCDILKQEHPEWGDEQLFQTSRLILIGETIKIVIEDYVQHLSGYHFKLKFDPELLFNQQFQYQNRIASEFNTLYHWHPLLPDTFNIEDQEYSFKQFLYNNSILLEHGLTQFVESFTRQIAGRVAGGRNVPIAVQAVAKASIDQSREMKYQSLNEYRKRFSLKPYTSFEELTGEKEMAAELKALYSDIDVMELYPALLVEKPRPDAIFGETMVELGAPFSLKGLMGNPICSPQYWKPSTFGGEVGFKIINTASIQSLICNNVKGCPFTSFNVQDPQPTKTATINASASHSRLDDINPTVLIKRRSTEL
Nature of the experiment: Assay for the COX-2 inhibitory activity using RAW 264.7 cell line. Format: cell-based. To be noted: RAW264.7; 10 nM test compound; PGE2 in RAW 264.7 cells treated with interferon γ and LPS, 18 hours; read-out: Cyclooxygenase (COX) Inhibition (%) COX-2 (10 nM). As for the experimental part:
Each well was treated with 250 μM of aspirin and incubated at 37° C. for 2 hours. After the culture media were replaced with new culture media, the new culture media were treated with a test compound (10 nM) and incubated for 30 minutes. Then, each well was treated with interferon γ (100 units/ml) and lipopolysaccharide (LPS, 100 ng/ml) and incubated for 18 hours. The culture media were transferred to other test tubes. The concentration of PGE2 was quantified by means of the EIA kit (Cayman Chemicals).
as §1

Each structure is given as a SMILES string.

T1 sequence (P23219 24-599): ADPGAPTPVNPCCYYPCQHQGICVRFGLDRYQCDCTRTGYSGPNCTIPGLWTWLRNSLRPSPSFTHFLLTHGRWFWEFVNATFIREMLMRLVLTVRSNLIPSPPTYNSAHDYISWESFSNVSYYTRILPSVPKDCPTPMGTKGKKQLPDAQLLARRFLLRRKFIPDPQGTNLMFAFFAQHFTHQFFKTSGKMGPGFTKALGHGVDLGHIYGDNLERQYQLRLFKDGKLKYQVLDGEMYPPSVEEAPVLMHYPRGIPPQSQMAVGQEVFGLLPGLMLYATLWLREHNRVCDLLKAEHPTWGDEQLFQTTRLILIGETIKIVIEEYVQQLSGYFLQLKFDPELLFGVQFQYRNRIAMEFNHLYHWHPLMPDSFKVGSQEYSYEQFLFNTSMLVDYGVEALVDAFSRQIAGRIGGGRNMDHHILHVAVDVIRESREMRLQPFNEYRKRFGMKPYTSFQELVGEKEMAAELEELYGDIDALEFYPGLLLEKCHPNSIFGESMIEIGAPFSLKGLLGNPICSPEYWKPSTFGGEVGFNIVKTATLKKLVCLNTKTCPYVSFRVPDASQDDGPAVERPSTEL

With `CS(=O)(=O)c1ccc(-n2nc(C(F)(F)F)nc2-c2ccc3ccccc3c2)cc1` [Example 10, 1-(4-methylsulfonylphenyl)-5-(naphthalene-2-yl)-3-trifluoromethyl-1H-1,2,4-triazole], the inhibition at 1 µM in experiment [1] worked out at 26.2%. In addition, in experiment [2], the inhibition at 0.01 µM came out at 12.3%.

Regarding `CS(=O)(=O)c1ccc(-n2nc(C(F)(F)F)nc2-c2cc3ccccc3o2)cc1` [Example 11, 5-(benzofuran-2-yl)-1-(4-methylsulfonylphenyl)-3-trifluoromethyl-1H-1,2,4-triazole], the inhibition at 1 µM in experiment [1] was determined as 24.3%. The inhibition at 0.01 µM in experiment [2] turned out to be 10.6%.

Turning to `CS(=O)(=O)c1ccc(-n2nc(C(F)(F)F)nc2-c2cc3ccccc3[nH]2)cc1` [Example 12, 2-[2-(4-methylsulfonylphenyl)-5-trifluoromethyl-2H-1,2,4-triazole-3-yl]-1H-indole], the inhibition at 1 µM in experiment [1] stood at 26.3%. In experiment [2], the inhibition at 0.01 µM came out at 5.67%.

For the compound `Cn1c(-c2nc(C(F)(F)F)nn2-c2ccc(S(C)(=O)=O)cc2)cc2ccccc21` [Example 13, 1-methyl-2-[2-(4-methylsulfonylphenyl)-5-trifluoromethyl-2H-1,2,4-triazole-3-yl]-1H-indole], the inhibition at 1 µM in experiment [1] was found to be 9.8%. For the same compound, the inhibition at 0.01 µM in experiment [2] is 25.7%.

As to `Cn1cc(-c2nc(C(F)(F)F)nn2-c2ccc(S(C)(=O)=O)cc2)c2ccccc21` [Example 14, 1-methyl-3-[2-(4-methylsulfonylphenyl)-5-trifluoromethyl-2H-1,2,4-triazole-3-yl]-1H-indole], the inhibition at 1 µM in experiment [1] was found to be 21.3%. Further, the inhibition at 0.01 µM in experiment [2] came to 6.02%.

In the case of `CS(=O)(=O)c1ccc(-n2nc(C(F)(F)F)nc2-c2ccc3ccccc3n2)cc1` [Example 15, 2-[2-(4-methylsulfonylphenyl)-5-trifluoromethyl-2H-1,2,4-triazole-3-yl]quinoline], the inhibition at 1 µM in experiment [1] was 22.3%. Also, in experiment [2], the inhibition at 0.01 µM was 5.42%.

Take `NS(=O)(=O)c1ccc(-n2nc(C(F)(F)F)nc2-c2ccc3ccccc3c2)cc1` [Example 16, 4-[5-(naphthalene-2-yl)-3-trifluoromethyl-1,2,4-triazole-1-yl]benzenesulfonamide]: the inhibition at 1 µM in experiment [1] is 32.9%. Further, the inhibition at 0.01 µM in experiment [2] came out at 16.3%.

Turning to `CS(=O)(=O)c1ccc(-n2nc(C(F)(F)F)nc2-c2ccc3ccccc3c2)nc1` [Example 17, 5-methanesulfonyl-2-[5-(naphthalene-2-yl)-3-trifluoromethyl-1,2,4-triazole-1-yl]pyridine], the inhibition at 1 µM in experiment [1] amounted to 10.6%. The inhibition at 0.01 µM in experiment [2] amounted to 23.3%.

The values are drawn from patent US7230010B2, “1,2,4-triazole derivative, method for preparing the same, and pharmaceutical composition containing the same” (CJ Corp., priority 2002, dated 2007).
